Test results published in ChEMBL document CHEMBL1153975, “Structure-activity relationships of diverse annonaceous acetogenins against human tumor cells” (Bioorg Med Chem Lett, 2009).

Key:
Type in all cases: functional, cell-based
HeLa = assay: Cytotoxicity against human HeLa cells after 72 hrs by MTT assay
[1] = Cytotoxicity against human A-5408 cells after 72 hrs by MTT assay
[2] = Cytotoxicity against human SMMC-7541 cells after 72 hrs by MTT assay
SGC-7901 = assay: Cytotoxicity against human SGC7901 cells after 72 hrs by MTT assay; settings: SGC-7901, 72 h
MCF7 = assay: Cytotoxicity against human MCF7 cells after 72 hrs by MTT assay; settings: MCF7, 72 h

| SMILES | IC50 (HeLa) [nM] | IC50 [1] [nM] | IC50 [2] [nM] | IC50 (SGC-7901) [nM] | IC50 (MCF7) [nM] |
| --- | --- | --- | --- | --- | --- |
| CCCCCC[C@@H](O)CCC[C@@H](O)[C@H]1CC[C@H]([C@H]2CC[C@H]([C@H](O)CCCCCCCCCCCCC3=C[C@@H](C)OC3=O)O2)O1 [Squamocin-D] | 24 | 1.8 | 12 | 1.6 | 2.8 |
| CCCCCC[C@@H](O)CCC[C@H](O)[C@@H]1CC[C@@H]([C@H](O)CC[C@@H](O)[C@@H]2CC[C@@H](CCCCCCCCCC3=C[C@@H](C)OC3=O)O2)O1 [Squamostatin-A] | 33 | 2.6 | 50 | 97 | 970 |
| CCCCCC[C@H](O)CCC[C@H](O)[C@H]1CC[C@H]([C@H]2CC[C@H]([C@H](O)CCCCCCCCCCCCC3=C[C@H](C)OC3=O)O2)O1 [SQUAMOCIN] | 9.7 | 0.87 | 0.09 | 0.73 | 0.5 |
| CCCCCC[C@@H](O)CCC[C@H](O)[C@@H]1CC[C@@H]([C@H](O)CC[C@@H](O)[C@@H]2CC[C@H](CCCCCCCCCC3=C[C@@H](C)OC3=O)O2)O1 | 1.3 | 16 | 60 | 93 | 3.3 |
| CCCCCCCCCCC(O)C1CCC(C2CCC(C(O)CCCCCCCC[C@H](O)CC3=C[C@@H](C)OC3=O)O2)O1 (some centres undefined) [ASIMICIN] | 27 | 3.6 | 11 | 4.3 | 13 |
| CCCCCCCCCC[C@@H](O)[C@@H]1CC[C@@H]([C@H](O)CC[C@@H](O)[C@@H]2CC[C@@H](CCCCCCCCCC3=C[C@@H](C)OC3=O)O2)O1 [Squamostatin-E] | 270 | 130 | 180 | 210 | 900 |
| CCCCCCCCCC[C@H](O)[C@H]1CC[C@H]([C@H]2CC[C@H]([C@H](O)CCCCCCCCCCCCC3=C[C@@H](C)OC3=O)O2)O1 [ISODESACETYLUVARICIN] | 13 | 160 | 16 | 84 | 21 |
| CCCCCC[C@@H](O)CCC[C@@H](O)[C@@H]1CC[C@@H]([C@H](O)CC[C@@H](O)[C@@H]2CC[C@@H](CCCCCCCCCC3=C[C@@H](C)OC3=O)O2)O1 [Squamostatin-B] | 380 | 43 | 170 | 170 | 730 |
| CCCCCCCCCC[C@@H](O)[C@H]1CC[C@H]([C@H]2CC[C@H]([C@H](O)CCCCCCCCCCCCC3=C[C@@H](C)OC3=O)O2)O1 [DEACETYLUVARICIN] | 160 | 400 | 140 | 43 | 40 |
| COc1cccc2c1C(=O)c1c(O)c3c(c(O)c1C2=O)C[C@@](O)(C(=O)CO)C[C@@H]3O[C@H]1C[C@H](N)[C@H](O)[C@H](C)O1 [DOXORUBICIN] | 16 | 26 | 3.7 | 13 |  |
| CCCCCCCCCCCC[C@@H](O)[C@H]1CC[C@H]([C@H](O)CCCCCC(O)CCCCCCC2=C[C@H](C)OC2=O)O1 (some centres undefined) | 1000 | 320 | 8.3 | 230 | 37 |
| CCCCCCCCCC[C@H](O)[C@@H]1CC[C@@H]([C@H](O)CC[C@@H](O)[C@@H]2CC[C@@H](CCCCCCCCCC3=C[C@@H](C)OC3=O)O2)O1 [Squamostatin-D] | 38 | 1.4 | 54 | 180 | 45 |
